According to US4166113A, “Cardiotonic agent” (University of Hawaii, priority 1978, dated 1979):

Tests used:
isolated rat atria = test: Bioassay for positive inotropic effect on isolated rat atria; type: cell-based
Description: The sea anemones are homogenized and extracted with water or with a solution of water and a water miscible organic solvent. The crude extract, containing anthopleurin-B, is subjected to gel filtration to give a forty-fold increase in purity of anthopleurin-B. Alternatively, semipermeable membranes may be used to accomplish the results obtained by gel filtration. Cation exchange chromatography provides an excellent separation of anthopleurin-B in a purity of about 30-40% depending on the particular collection of anemones. […] To obtain analytically pure salt-free material the above material is further purified by gel filtration, cation-exchange chromatography and gel adsorption chromatography. All the separation procedures in the present invention are monitored by bioassay using the isolated rat atria for determination of positive inotropic effect using the procedure described in the section headed Bioassay.
Bioassays of the solutions containing anthopleurin-B are performed on isolated atria of rat hearts. […]
The spontaneously beating atrial preparation is connected by a thin silk thread to a force-displacement transducer (Grass Model FT.03), and the contractile movements are recorded on a six-channel polygraph Grass Model 7. […]

Isoelectric focusing = type: physicochemical
Description: For the purpose of obtaining electrophoretic and amino acid analysis the anthopleurin-B obtained in Example 1, below, was rechromatographed on CM Sephadex C-25, Sephadex G-50 and G-10 according to the process set forth in Example 1, Steps c, d and e, respectively. The doubly purified material was subject to electrophoretic analysis using commercially available pre-cast 12% acrylamide gels and matched buffer systems obtained from Bio.Rad Laboratories, 32nd and Griffin, Richmond, California.
Isoelectric focusing gave the isoelectric point at a pH=9.05. Disc gel electrophoresis with 12% polyacrylamide gel at pH 3.6 gave an Rf value of 0.64 versus methyl green tracking dye. […] Sodium dodecyl sulfate (SDS) disc gel electrophoresis using a 10% gel indicated a m.w. of about 5,200 after incubation with dithioerythritol, using RNase A and pancreatic trypsin inhibitor (PTI) for comparison. The molecular weight is so low that these values are only approximate. […] Acid hydrolysis indicated the approximate following amino acid composition: (Asp or Asn)5, Thr1 Ser4, (Glu or Gln)1, Pro5, Gly7, Ala2, (Cys/2)6 Val1, Ile2, Leu2, Tyr1, Phe1, Lys3, His2, Arg2, Trp2.

Stability (pH, storage) = type: physicochemical
[1] = Solubility in deionized water; type: physicochemical

Question: Which “potency in positive inotropic effect relative to ouabain” value (isolated rat atria; as potent as ouabain) does the source give for anthopleurin-B [AP-B] here?
Answer: 200-1000 x

Question: What about the chronotropic effect (isolated rat atria; isolated rat atria, beat rate) of the same substance?
Answer: does not show any chronotropic effect

Question: What about the isoelectric point (Isoelectric focusing) of the same substance?
Answer: 9.05 pH

Question: What about the storage stability (Stability (pH, storage); -20° C. for a year, as lyophilized fraction C or fraction G) of the same substance?
Answer: no signs of deterioration

Question: And the “stability versus pH” value (Stability (pH, storage); neutral and lower pH values)?
Answer: relatively stable

Question: What about the “stability of dry form” value (Stability (pH, storage); sterile powdered lyophilized, room temperature) of the same substance?
Answer: stable at room temperature

Question: What about the solubility [1] of the same substance?
Answer: very soluble
